US20260136597A1, “PHARMACEUTICAL COMPOSITION FOR PREVENTING OR TREATING A PERIODONTAL DISEASE OR DISLOCATED TRAUMATIC TOOTH” (HYSENSBIO Co., Ltd., priority 2020, published 2026)

What was measured:
BSP = assay: Real-time PCR, BSP gene expression in human periodontal ligament cells; format: cell-based; settings: hPDL cells, average of three experiments
Procedure: Human periodontal ligament cells (hPDL cells) were isolated from periodontal ligament tissues from the wisdom teeth of 10 adults (18-22 years old) at Seoul National University Dental Hospital. Specifically, all experiments were performed with the consent of the patient after obtaining approval from the Hospital's Institutional Review Board, a periodontal ligament tissue attached to the root of a wisdom tooth was isolated and cut into double-sided pieces, placed in a 60 mm dish, and covered with a cover slip, and then cultured in Dulbecco's degenerated Eagle's Medium.

CAP = settings: hPDL cells; real-time PCR; average of three experiments
Procedure: Human periodontal ligament cells (hPDL cells) were isolated from periodontal ligament tissues from the wisdom teeth of 10 adults (18-22 years old) at Seoul National University Dental Hospital. Specifically, all experiments were performed with the consent of the patient after obtaining approval from the Hospital's Institutional Review Board, a periodontal ligament tissue attached to the root of a wisdom tooth was isolated and cut into double-sided pieces, placed in a 60 mm dish, and covered with a cover slip, and then cultured in Dulbecco's […] Eagle's Medium.
Total RNA from human periodontal ligament cells was isolated using a TRIzol reagent. cDNA was synthesized using 2 μg of total RNA, 1 μl of reverse transcriptase, and 0.5 μg of oligo (dT). cDNA of synthesized human periodontal ligament cells was used for a real-time polymerase chain reaction using primers shown in Table 2 below. A real-time polymerase chain reaction was performed in ABI PRISM 7500 sequence detection system (Applied Biosystems) using SYBR GREEN PCR Master Mix (Takara, Japan). The real-time polymerase chain reaction was performed at 94° C., 1 min; 95° C., 15 sec-60° C., 34 sec was performed under the condition of repeating 40 cycles. Results were analyzed using a comparative cycle threshold (CT) method.
Bone sialoprotein (BSP) and dentin matrix protein 1 (DMP1) genes are used as markers for the differentiation of osteoblast and cementoblast and are known as important genes for the calcification of a bone and cementum. In addition, a CAP (cementum attachment protein) gene is expressed in differentiated cementoblast and is known as a gene involved in the cementum attachment of a periodontal ligament fiber bundle.

PERIOSTIN = assay: Real-time PCR, periostin gene expression in human periodontal ligament cells; format: cell-based; settings: hPDL cells, average of three experiments
Description: Periostin is a protein first discovered in a periodontal ligament and periosteum of a bone, and periostin is expressed in the periodontal ligament and mesenchymal of the developing tooth and is known to be involved in cell adhesion. According to several recent studies, periostin is an important regulator of periodontium formation, promotes collagen fiber production and migration of fibroblast and osteoblast, and it is known to play a pivotal role in the regeneration of periodontal ligament and alveolar bone after periodontal surgery to treat periodontal disease. Therefore, the effect of a peptide of Example 1 on the expression of periostin which is a marker gene for a periodontal ligament differentiation, and the type 3 collagen fiber gene (COL3) was confirmed.

[1] = test system: three-wall periodontal defect; assay: Periodontium regeneration in periodontium damage animal model, histological evaluation; format: in vivo, beagle dogs; settings: beagle dog, 3 months
Procedure: Four beagle dogs (12-16 kg; […]) were anesthetized by inhalation of Geloran, intravenously injected with Zoletil (5 mg/kg) and Xylazine (0.2-0.5 mg/kg), and then treated with Lidocaine (Lidocaine 2% with 1:80,000 epinephrine). The 4th premolar tooth and the 2nd molar tooth were extracted from the mandible of the beagle dog, and then the dog waited for healing for 3 months. After 3 months of healing, three-wall periodontal defect was induced on distal and mesial surfaces of a 1st molar tooth. Then, a periodontal damage of 4×4×4 mm was formed with the buccal and distal bones remaining around the tooth root, the root alveolar bone is securely removed, tooth root planing was performed using a curette, and then an incisor groove was formed using a ½ round bur. Next, an experimental group was transplanted with a collagen sponge (a peptide solution obtained by dissolving a peptide in physiological saline at a concentration of 1 μg/μl was prepared, 50 μl of a peptide solution was added to the EP tube, and then was soaked for 5 minutes to prepare the collagen sponge) including a 50 μl of peptide (SEQ ID NO: 16 of group 2) prepared in Example 1 at a defect region, After the defect, only a negative control (NC) without any treatment and a collagen sponge (prepared by soaking a collagen sponge in 50 μl of physiological saline for 5 minutes) was placed on the inner bone wall of a bone defect and a transplanted negative control (NC+Plug) was sacrificed 3 months later, and histological evaluation was performed. After 3 months, a beagle dog was sacrificed by administering an excessive amount (90-120 mg/kg) of pentobarbital. A tooth of the beagle dog was extracted, fixed with 10% formalin, and then calcium was removed by adding 5% formic acid, molded, and embedded in paraffin, to obtain a tissue section with a thickness of 5 μm. The obtained tissue section was stained with hematoxylin and eosin or collagen stained (Masson's Trichrome Staining) to confirm periodontal ligament regeneration and then analyzed using by an optical microscope equipped with a digital camera (LEICA ICC50 camera, Germany). After extraction of a 4th premolar tooth and a 2nd molar tooth from the mandibles of 4 beagle dogs, they waited for 3 months to heal, and After 3 months of healing, the 3-mural periodontal defect was induced in distal and mesial surfaces of a 1st molar tooth. Then, periodontium damage of 4×4×4 mm was formed with the buccal and distal bones remaining around the tooth root, the root alveolar bone is securely removed, tooth root planing was performed using a curette, and then an incisor groove was formed. Next, the experimental group transplanted a collagen sponge containing 50 μg of the peptide (SEQ ID NO: 16) of Example 1 to the defect region, and after the defect, a negative control (NC) without any treatment and control (NC+Plug) transplanted by placing only a collagen sponge on the inner bone wall of the bone defect was sacrificed 3 months later for histological evaluation.

[2] = collagen sponge with 50 μg peptide, Masson's trichrome stain, FIG. 6
[3] = collagen sponge with 50 μg peptide, hematoxylin/eosin, FIG. 5

Row | Sequence | BSP gene expression, relative mRNA expression level compared to the control (Average) (BSP) | CAP gene expression, relative mRNA expression level compared to the control (Average) (CAP) | PERIOSTIN gene expression, relative mRNA expression level compared to the control (Average) (PERIOSTIN) | further results
1 | KYKQKKKNYK [SEQ ID NO 5] | 2.67 | 2.67 | 2.67 | –
2 | KYKQKKKSYK [SEQ ID NO 13] | 2.525 | 2.525 | 2.525 | –
3 | KYKQKKRNYK [SEQ ID NO 7, Group 1 peptide, 8th amino acid asparagine (N)] | 2.215 | 2.451 | 2.329 | –
4 | KYKQKKRSYK [SEQ ID NO 15] | 2.620 | 2.620 | 2.620 | –
5 | KYKQKRKNYK [SEQ ID NO 6] | 2.705 | 2.705 | 2.705 | –
6 | KYKQKRKSYK [SEQ ID NO 14] | 2.836 | 2.836 | 2.836 | –
7 | KYKQKRRNYK [SEQ ID NO 8] | 2.021 | 2.021 | 2.021 | –
8 | KYKQKRRSYK [SEQ ID NO 16, Group 2 peptide, 8th amino acid serine (S)] | 2.606 | 2.467 | 2.403 | Alveolar bone regeneration ([1]; collagen sponge with 50 μg peptide at defect, hematoxylin/eosin, FIG. 4): alveolar bone was regenerated in most of the damage periodontium; Incorporation of new periodontal ligament fiber bundle into alveolar bone and cementum [1, 2]: A new periodontal ligament fiber bundle was vertically incorporated in the newly formed alveolar bone and cementum; New cementum-like tissue formation [1, 2]: new cementum-like tissue was observed along a tooth root surface; New periodontal ligament-like tissue formation [1, 2]: new periodontal ligament-like tissue formation was also observed; Incorporation of new periodontal ligament into alveolar bone and cementum [1, 3]: New periodontal ligament was incorporated in the newly formed alveolar bone and cementum; New cementum-like tissue formation [1, 3]: new cementum-like tissue was observed along a tooth root surface; New periodontal ligament-like tissue formation [1, 3]: new periodontal ligament-like tissue formation was also observed
9 | KYKQRKKNYK [SEQ ID NO 1] | 2.092 | 2.092 | 2.092 | –
10 | KYKQRKKSYK [SEQ ID NO 9] | 2.211 | 2.211 | 2.211 | –
11 | KYKQRKRNYK [SEQ ID NO 2] | 2.361 | 2.361 | 2.361 | –
12 | KYKQRKRSYK [SEQ ID NO 10] | 2.811 | 2.811 | 2.811 | –
13 | KYKQRRKNYK [SEQ ID NO 3] | 2.572 | 2.572 | 2.572 | –
14 | KYKQRRKSYK [SEQ ID NO 11] | 2.362 | 2.362 | 2.362 | –
15 | KYKQRRRNYK [SEQ ID NO 4] | 2.702 | 2.702 | 2.702 | –
16 | KYKQRRRSYK [SEQ ID NO 12] | 2.211 | 2.211 | 2.211 | –
